Patent US20020173491A1, “DAPD combination therapy with inosine monophosphate dehydrogenase inhibitor” (priority 2000, published 2002)
pEC50: −log10 of the molar value. Read-outs that look alike come from different tables or passages of the source.

Experiments:
[1] = test system: recombinant virus A98S, F116Y, Q151M, T215Y; assay: MT2/XTT combination assay, recombinant resistant virus; format: cell-based, HIV-1; conditions: for fold difference from WT: A98S; for pEC50: Human immunodeficiency virus 1, A98S
Experimental: (§1) Triplicate samples of compound were tested. MT2 cells were infected with xxLAI at a multiplicity of infection (MOI) of 0.03 for 3 hours at 37° C. in 5% CO2. The infected cells were plated at 3.0×10^4/well into a 96 well plated containing drug dilutions and incubated for 5 days at 37° C. in CO2. […] This method has been modified into a susceptibility assay and has been used in a variety of in vitro antiviral tests and is readily adaptable to any system with a lytic virus (Weislow, O. S., et. al. 1989). Using the absorption values of the cell controls as 100% protection and no drug, virus infected cells as 0% protection, a dose response curve is generated by plotting % protection on the Y axis and drug concentration on the X axis. From this curve EC50 values were determined.
(§2) Assays were performed in the MT2 cell line as described above in the XXT sensitivity assay section.
(§3) The restraint strains analyzed included viruses created by site directed mutagenesis, K65R and L74V, as well as a recombinant virus containing mutations at positions 98S, 116Y, 151M and 215Y. The wild type backbone in which these mutants were created, xxLAI, was also analyzed for comparison. The concentrations of DAPD and DXG tested were as described in the above MT2/XTT combination assay section.
(§4) The concentrations of MPA used were 1, 0.5, 0.25, 0.1, and 0.01 μM. Assays were performed in the MT2 cell line as described in section 3.1.
as §3, with “section 4.1. MPA was tested in” for “the above MT2/XTT”, “with DAPD and DXG at a fixed concentration of 0.25 μM.” for “assay section.”

xxLAI strain of HIV-1 = assay: microbe, parasite or virus in culture; format: cell-based; conditions: for Fold difference in EC50, 0.1 μM MPA: control vs with 0.1 μM MPA; for Fold difference in EC50, 0.25 μM MPA: control vs with 0.25 μM MPA (fold decrease); for Fold difference in EC50, 1 μM RBV: control vs with 1 μM RBV; for Fold difference in EC50, 5 μM RBV: control vs with 5 μM RBV; for Fold difference in EC50, 10 μM RBV: control vs with 10 μM RBV; for Fold difference in EC50, 20 μM RBV: control vs with 20 μM RBV (fold decrease)
Experimental: as §1, §2
MPA was tested for activity against the xxLAI strain of HIV-1 in the laboratory adapted cell line MT2. Dilutions of MPA were made in cell culture media in a 96 well plate; the highest concentration tested was 1 μM. Triplicate samples of compound were tested. MT2 cells were infected with xxLAI at a multiplicity of infection (MOI) of 0.03 for 3 hours at 37° C. in 5% CO2. The infected cells were plated at 3.0×10^4/well into a 96 well plated containing drug dilutions and incubated for 5 days at 37° C. in CO2. The antiviral activity of MPA was determined using the XTT assay described above. This method has been modified into a susceptibility assay and has been used in a variety of in vitro antiviral tests and is readily adaptable to any system with a lytic virus (Weislow, O. S., et. al. 1989). Using the absorption values of the cell controls as 100% protection and no drug, virus infected cells as 0% protection, a dose response curve is generated by plotting % protection on the Y axis and drug concentration on the X axis. From this curve EC50 values were determined.
as §4

HIV-1 mutant L74V = assay: MT2/XTT combination assay, resistant virus L74V; format: cell-based; conditions: for pEC50: Human immunodeficiency virus 1, L74V; for fold difference from WT: L74V
Experimental: as §1, §2, §3, §4
as §3, with “section 4.1. MPA was tested in” for “the above MT2/XTT”, “with DAPD and DXG at a fixed concentration of 0.25 μM.” for “assay section.”

[2] = Human immunodeficiency virus 1, MT2, read-out: Mean EC50, Control, MT2 cells, no MPA
[3] = Human immunodeficiency virus 1, MT2, read-out: Mean EC50, Control, MT2 cells, no RBV
[4] = read-out: Mean EC50, 0.01 μM MPA, MT2 cells, with 0.01 μM MPA
[5] = read-out: Mean EC50, 0.1 μM MPA, MT2 cells, with 0.1 μM MPA
[6] = read-out: Mean EC50, 0.25 μM MPA, MT2 cells, with 0.25 μM MPA
[7] = read-out: Mean EC50, 1 μM RBV, MT2 cells, with 1 μM RBV
[8] = read-out: Mean EC50, 5 μM RBV, MT2 cells, with 5 μM RBV
[9] = read-out: Mean EC50, 10 μM RBV, MT2 cells, with 10 μM RBV
[10] = read-out: Mean EC50, 20 μM RBV, MT2 cells, with 20 μM RBV

Compound	fold difference from WT ([1]; compound alone (Table 4))	fold difference from WT ([1]; compound alone (Table 10))	pEC50 ([1]; compound alone (Table 4))	pEC50 ([1]; compound alone (Table 10))	pEC50 (xxLAI strain of HIV-1; [2])	pEC50 (xxLAI strain of HIV-1; [3])	Fold difference in EC50, 0.1 μM MPA (xxLAI strain of HIV-1; MT2 cells)	Fold difference in EC50, 0.25 μM MPA (xxLAI strain of HIV-1; MT2 cells)	Fold difference in EC50, 1 μM RBV (xxLAI strain of HIV-1; MT2 cells)	Fold difference in EC50, 5 μM RBV (xxLAI strain of HIV-1; MT2 cells)	Fold difference in EC50, 10 μM RBV (xxLAI strain of HIV-1; MT2 cells)	Fold difference in EC50, 20 μM RBV (xxLAI strain of HIV-1; MT2 cells)	pEC50 (xxLAI strain of HIV-1; [4])	pEC50 (xxLAI strain of HIV-1; [5])	pEC50 (xxLAI strain of HIV-1; [6])	pEC50 (xxLAI strain of HIV-1; [7])	pEC50 (xxLAI strain of HIV-1; [8])	pEC50 (xxLAI strain of HIV-1; [9])	pEC50 (xxLAI strain of HIV-1; [10])	pEC50 (HIV-1 mutant L74V; compound alone (Table 4))	also measured
Nc1nc(N)c2ncn(C3COC(CO)O3)c2n1 (single isomer, unassigned; (-)) [DAPD]	(>12) fold	6 fold	< 4.00	4.07	4.70	4.73	4.1 fold	16.7 fold	2.25 fold	6.4 fold	11.56 fold	14.2 fold	4.66	5.31	5.92	5.09	5.54	5.80	5.89	4.47	pEC50 (HIV-1 mutant L74V; compound alone (Table 10)): 4.41; fold difference from WT (HIV-1 mutant L74V; compound alone (Table 4)): (4) fold; fold difference from WT (HIV-1 mutant L74V; compound alone (Table 10)): 4.9 fold
Nc1nc2c(ncn2C2COC(CO)O2)c(=O)[nH]1 (single isomer, unassigned; (-)) [DXG]	20 fold	8.4 fold	4.80	4.80	5.68	5.58	3.5 fold	10.5 fold	1.29 fold	4.57 fold	5.3 fold	12 fold	5.60	6.22	6.70	5.69	6.24	6.30	6.66	5.35	pEC50 (HIV-1 mutant L74V; compound alone (Table 10)): 5.42; fold difference from WT (HIV-1 mutant L74V; compound alone (Table 4)): 5.6 fold; fold difference from WT (HIV-1 mutant L74V; compound alone (Table 10)): 4.2 fold
